The results in this text go back to patent US4250321A, “1-Descarboxy-1-ketoester(ketoacid)-protaglandins” (American Cyanamid Company, priority 1979, dated 1981).

Like-named read-outs stand apart in the source and are kept apart here.

Assay type in all cases: in vivo
For experiment [1], the system named is bronchospasms elicited by intravenous injections of 5-hydroxytryptamine, histamine or acetylcholine. The experiment in a line: Bronchodilator activity in guinea pigs by the Konzett procedure. The conditions noted are these: Cavia porcellus, guinea pig, three logarithmic cumulative intravenous doses. As for the experimental part:
The compounds of this invention are useful as bronchodilators for the treatment of asthma and chronic bronchitis. Bronchodilator activity is determined in guinea pigs against bronchospasms elicited by intravenous injections of 5-hydroxytryptamine, histamine or acetylcholine by the Konzett procedure. [See J. Lulling, P. Lievens, F. El Sayed and J. Pringnot, Arzneimittel-Forschung, 18, 955 (1968).].
In Table which follows bronchodilator activity for representative compounds of this invention against one or more of three spasmogenic agents is expressed as an ED50 determined from the results obtained with three logarithmic cummulative intravenous doses. In this assay, these compounds of this invention provide an effect of longer duration than does natural 1-PGE1 or 1-PGE2.

Experiment [2] has as its system histamine-stimulated gastric acid secretion. The experiment in a line: Gastric acid secretion in the dog, gastric fistula. The conditions noted are these: 5 μg/Kg by stomach tube, i.v. histamine 40 μg/kg/hr. How it is done: (§1) Experiments are carried out on six fasted female mongrel dogs, 3-7 years of age. Each had been provided with either a gastric fistula (4 dogs) or a Heidenhain pouch (2 dogs) using standard surgical techniques. Briefly, spool shaped cannulae of stainless steel (gastric fistual preparation) or titanium (Heidenhain pouch preparation) were inserted into narrow slits in the most dependent portion of the vertical stomach and retained in place by a purse-string suture. In the Heidenhain pouch preparation the slit made in a denervated sleeve of stomach which was isolated along the greater curvature. The cannulae were exteriorized through a trocar wound in the abdomen just left of midline and, as the purse string was tightened about the cannulae, the edges of the wound were inverted.
The drug is administered at zero time through the smaller lumen of a double lumen Salen Sump Tube which has been placed transorally into the animal's stomach. The length is adjusted to reach from the mouth just to the cannula site. Five ml of saline are then flushed through the smaller lumen, followed by 5 ml of air. Immediately following 20-25 ml of saline are placed into the stomach through the larger lumen of the double lumen tube and the tube withdrawn.
Thirty minutes after the drug is administered the gastric annula is opened, irrigated rapidly with 25-30 ml of saline 4 separate times and allowed to drain for 15 minutes.
At the end of the drainage period, the intravenous histamine infusion is started ([…]) and the first 15 minutes collection period of gastric secretions via the cannula is begun. The collection is changed every 15 minutes. The volume of each 15 minute sample is measured and an aliquot titrated to pH 7 with 0.1 N NaOH using a Radiometer automatic titrator.
^1 Secretion is stimulated with intravenous histamine, 40 μg/kg/hr
g/Kg) 45 minutes after administration of compound (5μg/Kg)? or vehicle
(control) by stomach tube. Secretions are collected from fistula annula.

For experiment [3] the test system is unchanged. The experiment in a line: Gastric acid secretion in the dog, Heidenhain pouch. The note with it: 5 μg/kg by stomach tube, i.v. histamine 40 μg/kg/hr. As for the experimental part: as §1
The intravenous histamine infusion ([…]) is started. At the same time, the first gastric secretion collection is begun. these secretions are collected by gravity drainage through the Heidenhain pouch cannula. Separate gastric samples are collected every fifteen minutes. When the volumes of two successive samples are within 10% of each other (usually occuring by the end of the fourth period--after one hour of histamine infusion) the drug is given to the animal (time 0). The latter of the two samples is considered to be the control for that particular experiment. The drug is administered through the smaller lumen of a double lumen Salem Sump Tube which has been cut to a length equal to the mouth to stomach distance of the dog. Following administration of the drug, the narrow lumen is flushed first with […], followed by 5 ml of air. Twenty-five to 30 ml of saline is then introduced into the stomach through the larger lumen and the tube withdrawn. (Note: Samples of gastric juice are taken from the pouch, drug is administered into the main stomach). Aliquots of each 15 minute gastric sample are titrated to pH 7 with 0.1 N NaOH using a Radiometer automatic titrator.
^2 Secretion is stimulated with intravenous histamine, 40 μg/kg/hr
and samples are collected through the pouch cannula at 15 minute
intervals. When the volume of two successive samples are within 10% of
each other, compound is administered (5 μg/kg) by stomach tube. The en
of the latter two periods is considered as 0 time (control).

Setting [4] is: bronchospasm by 5-hydroxytryptamine, read-out: ED50 5HT.
[5] abbreviates: bronchospasm by histamine, read-out: ED50 HIST.
Where [6] appears, read: bronchospasm by acetylcholine, read-out: ED50 ACH.

The ED50 is the dose at which the effect has come halfway, by size or by number of responders. As for `CCCCCC(C)(O)/C=C/[C@H]1[C@H](O)CC(=O)[C@@H]1CCCCCCC(=O)C(=O)OCC` (relative stereo) [dl-1,9-dioxo-1-carbethoxy-11α,15-dihydroxy-15-methyl-13-trans-prostene], the median effective dose (ED50) in experiment [1] (setting [4]) is 4.22 µg/kg; in experiment [1] (setting [5]), 6.05 µg/kg.
`CCCCC(C)(O)C/C=C/[C@H]1[C@H](O)CC(=O)[C@@H]1CCCCCCC(=O)C(=O)OCC` (relative stereo) [dl-1,9-dioxo-1-carbethoxy-11,16-dihydroxy-16-methyl-13-trans-prostene]: in experiment [2], the “% INHIBITION ACID SECRETION, 45-60 minutes after compound” value turned out to be 97%; the “% INHIBITION ACID SECRETION, 60-75 minutes after compound” value turned out to be 91%; the “% INHIBITION ACID SECRETION, 75-90 minutes after compound” value came out at 76%; the “% INHIBITION ACID SECRETION, 90-105 minutes after compound” value is reported as 72%. The “% INHIBITION ACID SECRETION, 105-120 minutes after compound” value in experiment [2] worked out at 56%. For the same compound, the “% INHIBITION ACID SECRETION, 0-15 minutes after compound” value in experiment [3] (0-15 min) was 20%. In addition, the “% INHIBITION ACID SECRETION, 15-30 minutes after compound” value in experiment [3] (15-30 min) was 28%. Also, the “% INHIBITION ACID SECRETION, 30-45 minutes after compound” value in experiment [3] (30-45 min) came out at 34%. Moreover, in experiment [3] (45-60 min), the “% INHIBITION ACID SECRETION, 45-60 minutes after compound” value came out at 21%. Moreover, the “% INHIBITION ACID SECRETION, 60-75 minutes after compound” value in experiment [3] (60-75 min) is recorded as 12%.
With `C=CC(O)(C/C=C/[C@H]1[C@H](O)CC(=O)[C@@H]1C/C=C\CCCC(=O)C(=O)OCC)CCCC` (relative stereo) [dl-1,9-Dioxo-1-carbethoxy-11α,16-dihydroxy-16-vinyl-5-cis-13-trans-prostadiene], the median effective dose (ED50) in experiment [1] (setting [4]) is 0.665 µg/kg; in experiment [1] (setting [6]), 3.41 µg/kg; in experiment [1] (setting [5]), 2.26 µg/kg.
On to `CCCCC(C)(O)C/C=C/[C@H]1[C@H](O)CC(=O)[C@@H]1C/C=C\CCCC(=O)C(=O)OCC` (relative stereo) [dl-1,9-Dioxo-1-carbethoxy-11α,16-dihydroxy-16-methyl-5-cis-13-trans-prostadiene], for which, in experiment [2], the “% INHIBITION ACID SECRETION, 45-60 minutes after compound” value is listed as 96%; the “% INHIBITION ACID SECRETION, 60-75 minutes after compound” value is recorded as 62%; the “% INHIBITION ACID SECRETION, 75-90 minutes after compound” value was found to be 59%; the “% INHIBITION ACID SECRETION, 90-105 minutes after compound” value was found to be 56%. For the same compound, the “% INHIBITION ACID SECRETION, 105-120 minutes after compound” value in experiment [2] was determined as 47%. Moreover, in experiment [1] (setting [4]), the ED50 was 9.51 µg/kg. In experiment [1] (setting [6]), the ED50 was found to be 5.92 µg/kg. In addition, the median effective dose (ED50) in experiment [1] (setting [5]) came out at 9.31 µg/kg.
